Assay results: patent publication US12398097B2, “WDR5-MYC inhibitors” (Vanderbilt University, priority 2019, dated 2025)

The compounds below were run against WDR5 (Homo sapiens, UniProt P61964) (assay: Competition-based fluorescence polarization anisotropy assay). Conditions: binding to WDR5; displacement of FITC-labeled small molecule probe (analogous to Example J2 or HCH-25) or peptide probe FITC-AHx-SEEEIDVVSV; pH 6.0; Ki converted from IC50.
Procedure, shortened: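 Ki values derive from displacement of either a fluorescent small-molecule probe or a FITC-peptide probe from WDR5, monitored by fluorescence polarization. Assay run at pH 6.0 in 200 mM phosphate with 300 mM NaCl, 0.5 mM TCEP and 0.1% Chaps.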

Ki [nM] | SMILES
440 | COCCNC(=O)c1cc(C2(C#N)CCC2)cc(NS(=O)(=O)c2cc(Br)ccc2O)c1O [Example J219, 3-((5-Bromo-2-hydroxyphenyl)sulfonamido)-5-(1-cyanocyclobutyl)-2-hydroxy-N-(2-methoxyethyl)benzamide]
390 | CNC(=O)c1cc(C2(C#N)CCC2)cc(NS(=O)(=O)c2cc(Br)cc(OC(F)(F)F)c2O)c1O [Example J214, 3-((5-Bromo-2-hydroxy-3-(trifluoromethoxy)phenyl)sulfonamido)-5-(1-cyanocyclobutyl)-2-hydroxy-N-methylbenzamide]
440 | O=C(NCCN1CCOCC1)c1cc(NS(=O)(=O)c2cc(Br)cc(Cl)c2O)cc(C2CC2)c1F [Example J153, 5-((5-Bromo-3-chloro-2-hydroxyphenyl)sulfonamido)-3-cyclopropyl-2-fluoro-N-(2-morpholinoethyl)benzamide]
780 | O=C(NC[C@@H]1CCCO1)c1cc(Cl)cc(NS(=O)(=O)c2cc(Br)ccc2O)c1O [Example J27, (S)-3-((5-Bromo-2-hydroxyphenyl)sulfonamido)-5-chloro-2-hydroxy-N-((tetrahydrofuran-2-yl)methyl)benzamide]
2480 | O=C(NCCO)c1cc(Cl)cc(NS(=O)(=O)c2cc(Br)cc(Cl)c2O)c1O [Example J41, 3-((5-Bromo-3-chloro-2-hydroxyphenyl)sulfonamido)-5-chloro-2-hydroxy-N-(2-hydroxyethyl)benzamide]
250 | CCS(=O)(=O)c1cc(Cl)cc(NS(=O)(=O)c2cc(Br)ccc2O)c1O [Example S22, 5-Bromo-N-(5-chloro-3-(ethylsulfonyl)-2-hydroxyphenyl)-2-hydroxybenzenesulfonamide]
700 | CC(C)(C)c1cc(NS(=O)(=O)c2cc(Br)ccc2O)c(O)c(C(=O)O)c1 [Example J201, 3-((5-Bromo-2-hydroxyphenyl)sulfonamido)-5-(tert-butyl)-2-hydroxybenzoic acid]
7010 | COC[C@@H]1CCCN1C(=O)c1cc(OC(F)(F)F)cc(NS(=O)(=O)c2cc(Cl)ccc2O)c1O [Example J176, (S)-5-Chloro-2-hydroxy-N-(2-hydroxy-3-(2-(methoxymethyl)pyrrolidine-1-carbonyl)-5-(trifluoromethoxy)phenyl)benzenesulfonamide]
320 | O=C(NCCN1CCOCC1)c1cc(C2CC2)cc(NS(=O)(=O)c2cc(Br)cc(Cl)c2O)c1F [Example J158, 3-((5-Bromo-3-chloro-2-hydroxyphenyl)sulfonamido)-5-cyclopropyl-2-fluoro-N-(2-morpholinoethyl)benzamide]
1940 | COc1ccc(Br)cc1S(=O)(=O)Nc1cc(C2CC2)cc(C(=O)O)c1O [Example J69, 3-((5-Bromo-2-methoxyphenyl)sulfonamido)-5-cyclopropyl-2-hydroxybenzoic acid]
90 | O=C(O)c1cc(Cl)cc(NS(=O)(=O)c2cc(Br)ccc2O)c1O [Example J1, 3-((5-Bromo-2-hydroxyphenyl)sulfonamido)-5-chloro-2-hydroxybenzoic acid]
450 | CNC(=O)C(CO)NC(=O)c1cc(OC(F)(F)F)cc(NS(=O)(=O)c2cc(Br)ccc2O)c1O (centres unmarked) [HCH-46, 3-((5-Bromo-2-hydroxyphenyl)sulfonamido)-2-hydroxy-N-(3-hydroxy-1-(methylamino)-1-oxopropan-2-yl)-5-(trifluoromethoxy)benzamide]
200 | CNC(=O)c1cc(OC(F)(F)F)cc(NS(=O)(=O)c2cc(Br)cc(Cl)c2O)c1O [HCH-63, 3-((5-Bromo-3-chloro-2-hydroxyphenyl)sulfonamido)-2-hydroxy-N-methyl-5-(trifluoromethoxy)benzamide]
940 | O=C(NCCCO)c1cc(C2CC2)cc(NS(=O)(=O)c2cc(Br)ccc2O)c1O [Example J91, 3-((5-Bromo-2-hydroxyphenyl)sulfonamido)-5-cyclopropyl-2-hydroxy-N-(3-hydroxypropyl)benzamide]
610 | COCCNC(=O)c1cc(C2CC2)cc(NS(=O)(=O)c2cc(Br)cc(Cl)c2O)c1O [Example J96, 3-((5-Bromo-3-chloro-2-hydroxyphenyl)sulfonamido)-5-cyclopropyl-2-hydroxy-N-(2-methoxyethyl)benzamide]
3930 | CC(C)CNc1ccc(Br)cc1S(=O)(=O)Nc1cc(C2CC2)cc(C(=O)O)c1O [Example J74, 3-((5-Bromo-2-(isobutylamino)phenyl)sulfonamido)-5-cyclopropyl-2-hydroxybenzoic acid]
320 | CCCc1cc(Br)cc(S(=O)(=O)Nc2cc(Cl)cc(C(=O)O)c2O)c1O [HCH-17, 3-((5-Bromo-2-hydroxy-3-propylphenyl)sulfonamido)-5-chloro-2-hydroxybenzoic acid]
4000 | COC[C@@H]1CCCN1C(=O)c1cc(Cl)cc(NS(=O)(=O)c2cc(Br)ccc2O)c1O [Example J29, (S)-5-Bromo-N-(5-chloro-2-hydroxy-3-(2-(methoxymethyl)pyrrolidine-1-carbonyl)phenyl)-2-hydroxybenzenesulfonamide]
350 | O=C(NC1CC(F)(F)C1)c1cc(OC(F)(F)F)cc(NS(=O)(=O)c2cc(Br)ccc2O)c1O [HCH-55, 3-((5-Bromo-2-hydroxyphenyl)sulfonamido)-N-(3,3-difluorocyclobutyl)-2-hydroxy-5-(trifluoromethoxy)benzamide]
1170 | COc1ccc(Br)cc1S(=O)(=O)Nc1cc(Cl)cc(C(=O)NCCO)c1O [Example J59, 3-((5-Bromo-2-methoxyphenyl)sulfonamido)-5-chloro-2-hydroxy-N-(2-hydroxyethyl)benzamide]
300 | COCCNC(=O)c1cc(Cl)cc(NS(=O)(=O)c2cc(Br)cc(Cl)c2O)c1O [Example J42, 3-((5-Bromo-3-chloro-2-hydroxyphenyl)sulfonamido)-5-chloro-2-hydroxy-N-(2-methoxyethyl)benzamide]
960 | CNC(=O)c1cc(C2CC2)cc(NS(=O)(=O)c2cc(Br)ccc2O)c1F [Example J141, 3-((5-Bromo-2-hydroxyphenyl)sulfonamido)-5-cyclopropyl-2-fluoro-N-methylbenzamide]
4690 | COC1CCN(C(=O)c2cc(OC(F)(F)F)cc(NS(=O)(=O)c3cc(Br)ccc3O)c2O)C1 (centres unmarked) [Example J174, 5-Bromo-2-hydroxy-N-(2-hydroxy-3-(3-methoxypyrrolidine-1-carbonyl)-5-(trifluoromethoxy)phenyl)benzenesulfonamide]
4750 | O=C(NC1COC1)c1cc(NS(=O)(=O)c2cc(Br)ccc2O)cc(C2CC2)c1F [Example J138, 5-((5-Bromo-2-hydroxyphenyl)sulfonamido)-3-cyclopropyl-2-fluoro-N-(oxetan-3-yl)benzamide]
1110 | COCCNC(=O)c1cc(NS(=O)(=O)c2cc(Br)ccc2O)cc(C2CC2)c1F [Example J136, 5-((5-Bromo-2-hydroxyphenyl)sulfonamido)-3-cyclopropyl-2-fluoro-N-(2-methoxyethyl)benzamide]
140 | CC(C)C(O)CNC(=O)c1cc(OC(F)(F)F)cc(NS(=O)(=O)c2cc(Br)cc(Cl)c2O)c1O (centres unmarked) [HCH-52, 3-((5-Bromo-3-chloro-2-hydroxyphenyl)sulfonamido)-2-hydroxy-N-(2-hydroxy-3-methylbutyl)-5-(trifluoromethoxy)benzamide]
